According to patent US20080200337A1, “Mixed herbicide compositions for paddy field” (Bayer CropScience, priority 2007, published 2008):
Several values for one entry are separate records, joined by “and”; a condition that tells them apart may be missing. Equal values may be shown once.

Assays:
Type in all cases: in vivo
[1] = tested on: Cyperus serotinus Rottboel; test: Weed control, flooded paddy field, treatment at 1 leaf-stage (Test Example 1); details: after 4 weeks
Protocol: (§1) Carrier: 5 parts by weight of acetone
(§2) Surfactant: one part by weight of benzyloxy polyglycol ether.
(§3) Above described carrier and surfactant are mixed with one part by weight of the active compound ((a) ingredient and (b) ingredient) and the resulting preparation is then diluted with water to obtain given amount of the test drug (the formulation).
(§4) In a greenhouse, seeds or tubers of Echinochloa, Scirpus juncoides Roxburgh, Monochoria vaginalis Presl, annual broad-leaved weeds (Lindernia procumbens Philcox, Lindernia dubia L. Penn., Rotala indica Koehne, Elatine triandra Schk, Ammannia multiflora Roxb.), Cyperus serotinus Rottboel and Sagittaria pygmaea Miq. were inoculated in a 500 cm^2 pot filled with paddy field soil. After 2 leaf-stage of rice were transplanted, water was poured to a depth of about 3 cm. At 1.0 leaf-stage of Echinochloa oryzicola Vasing, a prescribed, diluted solution of the formulation of each active compound and each herbicidal compound in the table was separately or simultaneously applied to the surface of water. After the treatment, the water depth of 3 cm was maintained, and herbicidal effect was examined after 4 weeks. In the assessment of the herbicidal effect and the phytotoxicity, 100% refers to complete death and 0% refers to no effect or no phytotoxicity.

Echinochloa [2] = test: as above; details: after 4 weeks
Protocol: as §1, §2, §3, §4

[3] = tested on: Monochoria vaginalis Presl; test: as above; details: after 4 weeks
Protocol: as §1, §2, §3, §4

Sagittaria pygmaea Miq. [4] = test: as above; details: after 4 weeks
Protocol: as §1, §2, §3, §4

[5] = tested on: Scirpus juncoides Roxburgh; test: as above; details: after 4 weeks
Protocol: as §1, §2, §3, §4

[6] = tested on: annual broad-leaved weeds; test: as above; details: after 4 weeks
Protocol: as §1, §2, §3, §4

transplanted rice [7] = test: Phytotoxicity, flooded paddy field, treatment at 1 leaf-stage (Test Example 1)
Protocol: as §1, §2, §3, §4

[8] = tested on: Cyperus serotinus Rottboel; test: Weed control, flooded paddy field, treatment at 3 leaf-stage (Test Example 2); details: after 4 weeks
Protocol: as §1, §2, §3
as §4, with “Echinochloa, Cyperus difformis L.,” for “Echinochloa,”, “3.0” for “1.0”, “Echinochloa,” for “Echinochloa oryzicola Vasing,”

Echinochloa [9] = test: as above; details: after 4 weeks
Protocol: as §1, §2, §3
as §4, with “Echinochloa, Cyperus difformis L.,” for “Echinochloa,”, “3.0” for “1.0”, “Echinochloa,” for “Echinochloa oryzicola Vasing,”

[10] = tested on: Monochoria vaginalis Presl; test: as above; details: after 4 weeks
Protocol: as §1, §2, §3
as §4, with “Echinochloa, Cyperus difformis L.,” for “Echinochloa,”, “3.0” for “1.0”, “Echinochloa,” for “Echinochloa oryzicola Vasing,”

Sagittaria pygmaea Miq. [11] = test: as above; details: after 4 weeks
Protocol: as §1, §2, §3
as §4, with “Echinochloa, Cyperus difformis L.,” for “Echinochloa,”, “3.0” for “1.0”, “Echinochloa,” for “Echinochloa oryzicola Vasing,”

[12] = tested on: Scirpus juncoides Roxburgh; test: as above; details: after 4 weeks
Protocol: as §1, §2, §3
as §4, with “Echinochloa, Cyperus difformis L.,” for “Echinochloa,”, “3.0” for “1.0”, “Echinochloa,” for “Echinochloa oryzicola Vasing,”

[13] = tested on: annual broad-leaved weeds; test: as above; details: after 4 weeks
Protocol: as §1, §2, §3
as §4, with “Echinochloa, Cyperus difformis L.,” for “Echinochloa,”, “3.0” for “1.0”, “Echinochloa,” for “Echinochloa oryzicola Vasing,”

transplanted rice [14] = test: Phytotoxicity, flooded paddy field, treatment at 3 leaf-stage (Test Example 2)
Protocol: as §1, §2, §3
as §4, with “Echinochloa, Cyperus difformis L.,” for “Echinochloa,”, “3.0” for “1.0”, “Echinochloa,” for “Echinochloa oryzicola Vasing,”

Cc1c(Cl)ccc(OC(C)C(=O)Nc2ccccc2)c1Cl (stereo not shown) [(b-1), clomeprop]
Herbicidal effect (%) CYPSEE ([1]; 350 g ai/ha): 50% | Herbicidal effect (%) ECHSS (Echinochloa [2]; 350 g ai/ha): 20% | Herbicidal effect (%) MOOVP ([3]; 350 g ai/ha): 100% | Herbicidal effect (%) SAGPY (Sagittaria pygmaea Miq. [4]; 350 g ai/ha): 90% | Herbicidal effect (%) SCPSS ([5]; 350 g ai/ha): 90% | Herbicidal effect (%) BBBBB ([6]; 350 g ai/ha): 100% | Phytotoxicity (%) ORYSP (transplanted rice [7]; 350 g ai/ha, treatment at 1 leaf-stage, after 4 weeks): 10% and 0% | Herbicidal effect (%) CYPSEE ([8]; 350 g ai/ha): 20% | Herbicidal effect (%) ECHSS (Echinochloa [9]; 350 g ai/ha): 20% | Herbicidal effect (%) MOOVP ([10]; 350 g ai/ha): 100% | Herbicidal effect (%) SAGPY (Sagittaria pygmaea Miq. [11]; 350 g ai/ha): 90% | Herbicidal effect (%) SCPSS ([12]; 350 g ai/ha): 90% | Herbicidal effect (%) BBBBB ([13]; 350 g ai/ha): 90% | Phytotoxicity (%) ORYSP (transplanted rice [14]; rice, in vivo, 4 weeks): 0%

CC(C)(NC(=O)C(Br)C(C)(C)C)c1ccccc1 (stereo not shown) [(b-2), bromobutide]
Herbicidal effect (%) CYPSEE ([1]; 750 g ai/ha): 70% | Herbicidal effect (%) ECHSS (Echinochloa [2]; 750 g ai/ha): 100% | Herbicidal effect (%) MOOVP ([3]; 750 g ai/ha): 80% | Herbicidal effect (%) SAGPY (Sagittaria pygmaea Miq. [4]; 750 g ai/ha): 70% | Herbicidal effect (%) SCPSS ([5]; 750 g ai/ha): 90% | Herbicidal effect (%) BBBBB ([6]; 750 g ai/ha): 50% | Phytotoxicity (%) ORYSP (transplanted rice [7]; 750 g ai/ha, treatment at 1 leaf-stage, after 4 weeks): 0% | Herbicidal effect (%) CYPSEE ([8]; 750 g ai/ha): 90% | Herbicidal effect (%) ECHSS (Echinochloa [9]; 750 g ai/ha): 45% | Herbicidal effect (%) MOOVP ([10]; 750 g ai/ha): 70% | Herbicidal effect (%) SAGPY (Sagittaria pygmaea Miq. [11]; 750 g ai/ha): 40% | Herbicidal effect (%) SCPSS ([12]; 750 g ai/ha): 80% | Herbicidal effect (%) BBBBB ([13]; 750 g ai/ha): 30% | Phytotoxicity (%) ORYSP (transplanted rice [14]; rice, in vivo, 4 weeks): 0%

Cc1ccc(C(=O)COc2c(C(=O)c3ccc(Cl)c(C)c3Cl)c(C)nn2C)cc1 [(b-3), benzofenap]
Herbicidal effect (%) CYPSEE ([1]; 800 g ai/ha): 20% | Herbicidal effect (%) ECHSS (Echinochloa [2]; 800 g ai/ha): 80% | Herbicidal effect (%) MOOVP ([3]; 800 g ai/ha): 80% | Herbicidal effect (%) SAGPY (Sagittaria pygmaea Miq. [4]; 800 g ai/ha): 70% | Herbicidal effect (%) SCPSS ([5]; 800 g ai/ha): 70% | Herbicidal effect (%) BBBBB ([6]; 800 g ai/ha): 100% | Phytotoxicity (%) ORYSP (transplanted rice [7]; 800 g ai/ha, treatment at 1 leaf-stage, after 4 weeks): 0% | Herbicidal effect (%) CYPSEE ([8]; 800 g ai/ha): 0% | Herbicidal effect (%) ECHSS (Echinochloa [9]; 800 g ai/ha): 10% | Herbicidal effect (%) MOOVP ([10]; 800 g ai/ha): 50% | Herbicidal effect (%) SAGPY (Sagittaria pygmaea Miq. [11]; 800 g ai/ha): 60% | Herbicidal effect (%) SCPSS ([12]; 800 g ai/ha): 0% | Herbicidal effect (%) BBBBB ([13]; 800 g ai/ha): 70% | Phytotoxicity (%) ORYSP (transplanted rice [14]; rice, in vivo, 4 weeks): 0%

COC(=O)c1ccccc1CS(=O)(=O)NC(=O)Nc1nc(OC)cc(OC)n1 [(b-4), bensulfuron methyl]
Herbicidal effect (%) CYPSEE ([1]; 50 g ai/ha): 85% | Herbicidal effect (%) ECHSS (Echinochloa [2]; 50 g ai/ha): 50% | Herbicidal effect (%) MOOVP ([3]; 50 g ai/ha): 90% | Herbicidal effect (%) SAGPY (Sagittaria pygmaea Miq. [4]; 50 g ai/ha): 90% | Herbicidal effect (%) SCPSS ([5]; 50 g ai/ha): 90% | Herbicidal effect (%) BBBBB ([6]; 50 g ai/ha): 90% | Phytotoxicity (%) ORYSP (transplanted rice [7]; rice, in vivo, 4 weeks): 0% | Herbicidal effect (%) CYPSEE ([8]; 50 g ai/ha): 80% | Herbicidal effect (%) ECHSS (Echinochloa [9]; 50 g ai/ha): 20% | Herbicidal effect (%) MOOVP ([10]; 50 g ai/ha): 90% | Herbicidal effect (%) SAGPY (Sagittaria pygmaea Miq. [11]; 50 g ai/ha): 80% | Herbicidal effect (%) SCPSS ([12]; 50 g ai/ha): 85% | Herbicidal effect (%) BBBBB ([13]; 50 g ai/ha): 90% | Phytotoxicity (%) ORYSP (transplanted rice [14]; rice, in vivo, 4 weeks): 0%

CCN(C(=O)n1nnn(-c2ccccc2Cl)c1=O)C1CCCCC1 [(b-6), fentrazamide]
Herbicidal effect (%) CYPSEE ([1]; 300 g ai/ha): 95% | Herbicidal effect (%) ECHSS (Echinochloa [2]; 300 g ai/ha): 95% | Herbicidal effect (%) MOOVP ([3]; 300 g ai/ha): 95% | Herbicidal effect (%) SAGPY (Sagittaria pygmaea Miq. [4]; 300 g ai/ha): 50% | Herbicidal effect (%) SCPSS ([5]; 300 g ai/ha): 95% | Herbicidal effect (%) BBBBB ([6]; 300 g ai/ha): 85% | Phytotoxicity (%) ORYSP (transplanted rice [7]; 300 g ai/ha, treatment at 1 leaf-stage, after 4 weeks): 0% | Herbicidal effect (%) CYPSEE ([8]; 300 g ai/ha): 75% | Herbicidal effect (%) ECHSS (Echinochloa [9]; 300 g ai/ha): 69% | Herbicidal effect (%) MOOVP ([10]; 300 g ai/ha): 55% | Herbicidal effect (%) SAGPY (Sagittaria pygmaea Miq. [11]; 300 g ai/ha): 50% | Herbicidal effect (%) SCPSS ([12]; 300 g ai/ha): 80% | Herbicidal effect (%) BBBBB ([13]; 300 g ai/ha): 55% | Phytotoxicity (%) ORYSP (transplanted rice [14]; 300 g ai/ha, treatment at 3 leaf-stage, after 4 weeks): 0%

CS(=O)(=O)c1ccc(C(=O)C2C(=O)CCCC2=O)c(Cl)c1COCC1CCCO1 (stereo not shown) [(b-7), 2-{2-chloro-4-mesyl-3-[(tetrahydrofuran-2-ylmethoxy)methyl]-benzoyl}-cyclohexan-1,3-dione]
Herbicidal effect (%) CYPSEE ([1]; 200 g ai/ha): 90% | Herbicidal effect (%) ECHSS (Echinochloa [2]; 200 g ai/ha): 95% | Herbicidal effect (%) MOOVP ([3]; 200 g ai/ha): 90% | Herbicidal effect (%) SAGPY (Sagittaria pygmaea Miq. [4]; 200 g ai/ha): 90% | Herbicidal effect (%) SCPSS ([5]; 200 g ai/ha): 95% | Herbicidal effect (%) BBBBB ([6]; 200 g ai/ha): 90% | Phytotoxicity (%) ORYSP (transplanted rice [7]; 200 g ai/ha, treatment at 1 leaf-stage, after 4 weeks): 0% | Herbicidal effect (%) CYPSEE ([8]; 200 g ai/ha): 70% | Herbicidal effect (%) ECHSS (Echinochloa [9]; 200 g ai/ha): 70% | Herbicidal effect (%) MOOVP ([10]; 200 g ai/ha): 95% | Herbicidal effect (%) SAGPY (Sagittaria pygmaea Miq. [11]; 200 g ai/ha): 80% | Herbicidal effect (%) SCPSS ([12]; 200 g ai/ha): 88% | Phytotoxicity (%) ORYSP (transplanted rice [14]; rice, in vivo, 4 weeks): 0%

COCc1cccc(C(O)c2nc(OC)cc(OC)n2)c1NS(=O)(=O)C(F)F (stereo not shown) [(b-8), pyrimisulfan]
Herbicidal effect (%) CYPSEE ([1]; 50 g ai/ha): 95% | Herbicidal effect (%) ECHSS (Echinochloa [2]; 50 g ai/ha): 95% | Herbicidal effect (%) MOOVP ([3]; 50 g ai/ha): 95% | Herbicidal effect (%) SAGPY (Sagittaria pygmaea Miq. [4]; 50 g ai/ha): 90% | Herbicidal effect (%) SCPSS ([5]; 50 g ai/ha): 95% | Herbicidal effect (%) BBBBB ([6]; 50 g ai/ha): 95% | Phytotoxicity (%) ORYSP (transplanted rice [7]; 50 g ai/ha, treatment at 1 leaf-stage, after 4 weeks): 15% | Herbicidal effect (%) CYPSEE ([8]; 50 g ai/ha): 90% | Herbicidal effect (%) ECHSS (Echinochloa [9]; 50 g ai/ha): 85% | Herbicidal effect (%) MOOVP ([10]; 50 g ai/ha): 95% | Herbicidal effect (%) SAGPY (Sagittaria pygmaea Miq. [11]; 50 g ai/ha): 85% | Herbicidal effect (%) SCPSS ([12]; 50 g ai/ha): 90% | Herbicidal effect (%) BBBBB ([13]; 50 g ai/ha): 85% | Phytotoxicity (%) ORYSP (transplanted rice [14]; 50 g ai/ha, treatment at 3 leaf-stage, after 4 weeks): 5%
